Data taken from patent US8637544B2, “Neurite formation promoter” (Senju Pharmaceutical Co., Ltd., priority 2007, dated 2014).

Experiments:
[1] = system: rabbit retinal nerve cells; experiment: Promoting effect on neuritogenesis in rabbit retinal cells (Test Example 2); type: cell-based; conditions: 0.1 nM (0.026 ng/mL), 48 h culture after addition; FIG. 2
Description: (§1) Japanese White rabbits (4 days old, male) purchased from Oriental Yeast Co., Ltd. were used.
A rabbit underwent cardiac perfusion with physiological saline under anesthesia with pentobarbital sodium injection (Dainippon Sumitomo Pharma), after which the eyeballs were extirpated and the retinas were isolated. The retinas isolated were placed in a papain solution (1 mg/mL, Sigma-Aldrich Japan K.K.) suspended in Hanks' balanced salt solution (HBSS, Invitrogen), and subjected to enzymatic digestion at 37° C. for 30 minutes. Thereafter, Leibovitz's L-15 Medium (L-15, Invitrogen) was used to prepare reagents. After the suspension was allowed to stand, the supernatant was discarded, 3 mL of a trypsin inhibitor solution (2 mg/mL trypsin inhibitor, 0.004% DNase and 1 mg/mL Bovine Serum Albumin dissolved in L-15, pH 7.4) was added, and pipetting was performed. After the solution was allowed to stand, the supernatant was discarded, another 3 mL of the trypsin inhibitor solution was added, pipetting was performed, and this operation was once again repeated; centrifugation was performed at 120×g for 5 minutes, and the supernatant was removed. […]

[2] = system: corneal sensitivity after corneal flap creation; experiment: Improving effect on rabbit corneal hyposensitivity after corneal flap creation (Test Example 4); type: in vivo; conditions: 1 nM ophthalmic solution, instillation 50 μL four times a day for 6 weeks
Description: Japanese White rabbits weighing 2.5 to 3.0 kg purchased from KITAYAMA LABES were used. From arrival to the day of test completion, the animals were kept in a breeding room set at a room temperature of 23±3° C., a humidity of 55±10%, and 12-hour lighting (lighted on at 8:00, lighted off at 20:00) at one animal per cage. Each animal was fed up to 100 to 120 g of a solid food (Labo R Stock, Nosan Corporation) a day, and had free access to tap water.
Compound A was used as a test substance. The test substance was dissolved in the base shown below to obtain a concentration of 1 nM (0.00000026%) to yield an ophthalmic solution. For a control group, the following base, free of the test substance, was administered by instillation.
3. Test Procedures 1) Grouping
On the day before flap creation, the animals were macroscopically examined for the ocular surface and examined for fluorescein-stained spots in the cornea; rabbits with no abnormalities observed therein were selected, and initial values of corneal sensitivity were measured using the Cochet-Bonnet aesthesiometer (manufactured by Luneau). […]
One week, 2 weeks, 4 weeks or 6 weeks after surgery, corneal sensitivity was measured using the Cochet-Bonnet aesthesiometer. […]

[3] = system: cultured rabbit trigeminal nerve cells; experiment: Promoting effect on neuritogenesis in cultured rabbit trigeminal nerve cells (Test Example 1); type: cell-based; conditions: 0.1 nM (0.026 ng/mL), 48 h culture after addition; mean±SD, N=5; control 29.5±8.7%
Source text: as §1
N-(1-acetylpiperidin-4-yl)-4-fluorobenzamide (hereinafter referred to as Compound A) was used.
Rabbit trigeminal nerve cells were isolated according to the report of Chan et al. (Kwan Y. Chan and Richard H. Haschke. Exp. Eye Res. 41: 687-699, 1985). Specifically, a rabbit underwent cardiac perfusion with physiological saline under anesthesia with pentobarbital sodium injection (Dainippon Sumitomo Pharma), after which the trigeminal ganglia thereof were cut out. […]
After the 48 hours of cultivation following the addition, the rabbit trigeminal nerve cells were immersed and fixed in 10% neutrally buffered formaldehyde solution at room temperature for 20 minutes. The specimens fixed were fluorescently stained using the anti-neurofilament 200 antibody (Sigma-Aldrich), which specifically recognizes neurofilaments constituting nerve cell bodies and neurites, and the cells stained were examined under a fluorescence microscope (Olympus). Stained cell were incorporated as images from the fluorescence microscope into a computer.
To evaluate the degree of neuritogenesis in the cultured rabbit trigeminal nerve cells, cell body diameters and neurite lengths were measured on the computer-captured stained cell images using image analysis software (Image-Pro Plus Ver. 4.5.1, Media Cybernetics). […]

[4] = system: cultured rabbit trigeminal nerve cells; experiment: Promoting effect on neuritogenesis in cultured rabbit trigeminal nerve cells, concentration series (Test Example 3); type: cell-based; conditions: for Ratio (%) of neuritogenesis cells: 48 h, mean±SD, control 30.4 ± 19.5
Source text: as §1
Rabbit trigeminal nerve cells were isolated according to the report by Chan et al. (Kwan Y. Chan and Richard H. Haschke. Exp. Eye Res. 41: 687-699, 1985). Specifically, a rabbit underwent cardiac perfusion with physiological saline under anesthesia with pentobarbital sodium injection (Dainippon Sumitomo Pharma), after which the trigeminal ganglia were cut out. The trigeminal ganglia cut out were washed with Hanks' balanced salt solution (HBSS, Invitrogen), and thereafter treated with 300 μg/mL collagenase-dispase (Roche) at 37° C. for 40 minutes; centrifugation was performed at 120×g for 5 minutes, and the cells were collected. The enzyme reaction was stopped with Neurobasal (registered trademark, Invitrogen) supplemented with EDTA at a final concentration of 0.1%, and the cells were suspended in culture medium, after which centrifugation was performed at 120×g for 5 minutes, and trigeminal nerve cells were prepared.
The cells prepared were seeded in a 8-well chamber slide coated with polylysine/laminin (Falcon) at about 3×10^3 cells/well; after the seeding, the cells were cultured for 24 hours. After the 24 hours, each of Compound A (final concentration: 0.001 nM (0.00026 ng/mL), 0.1 nM (0.026 ng/ml), 10 nM (2.6 ng/mL), 1000 nM (260 ng/mL)) and NGF (final concentration 1 μg/ml) as a positive control or PBS as a control, was added to the culture medium. After the addition, the cells were further cultured for 48 hours.
The culture medium used was a Neurobasal containing the B27 supplement (Invitrogen) (final concentration 2% (v/v)), L-glutamine (Invitrogen) (final concentration 1 mM) and cytosine-1-β-D(+)arabinofuranoside (final concentration 10 μM). Culturing conditions were set at a carbon dioxide concentration of 5%, an air concentration of 95%, a humidity of 100%, and a temperature of 37° C.
After the 48 hours of cultivation, the rabbit trigeminal nerve cells were immersed and fixed in 10% neutrally buffered formaldehyde solution at room temperature for 20 minutes. The specimens fixed were fluorescently stained using the anti-neurofilament 200 antibody (Sigma-Aldrich), which specifically recognizes neurofilaments constituting nerve cell bodies and neurites, and the cells stained were examined under a fluorescence microscope (Olympus). Stained cells were incorporated as images from the fluorescence microscope into a computer.
To evaluate the degree of neuritogenesis in the cultured rabbit trigeminal nerve cells, cell body diameters and neurite lengths were measured on the computer-captured stained cell images using image analysis software (Image-Pro Plus Ver. 4.5.1, Media Cybernetics). Cells having a neurite with a length of not less than twice the diameter of the cell body were regarded as neuritogenesis cells, and the ratio (%) of the cells to the total cell count was calculated (Otori Y, Wei J Y, Barnstable C J. Invest. Opthalmol V is Sci (1998) 39, 972-981).

SMILES: CC(=O)N1CCC(NC(=O)c2ccc(F)cc2)CC1 [Compound A, N-(1-acetylpiperidin-4-yl)-4-fluorobenzamide]
- neuritogenesis in retinal nerve cells stained with anti-neurofilament antibody [1]: Remarkable neuritogenesis was observed
- time when a sense was observed for the first time after corneal flap creation (first measured value of 5 mm filament length or more) ([2]; average, vehicle group 5.5 weeks): 4.1 weeks
- recovery from decreased corneal sensitivity after flap creation (Cochet-Bonnet aesthesiometer) ([2]; versus vehicle instillation group, FIG. 3): accelerated recovery from decreased corneal sensitivity after flap creation
- ratio of neuritogenesis cells to all cells [3]: 63.3±5.2%
- Ratio (%) of neuritogenesis cells ([4]; 0.001 nM): 33.6 ± 16.3%
- Ratio (%) of neuritogenesis cells ([4]; 0.1 nM, *p<0.05 vs control): 45.9 ± 15.1* %
- Ratio (%) of neuritogenesis cells ([4]; 10 nM): 37.2 ± 16.5%
- Ratio (%) of neuritogenesis cells ([4]; 1000 nM): 37.0 ± 20.0%
- optimum concentration for promoting effect on neuritogenesis in trigeminal nerve cells ([4]; tested at 0.001, 0.1, 10, 1000 nM): 0.1 nM
